Measured values: PMC6921279 (Frontiers in Endocrinology, 2019)

Columns and labels:
[1] = test system: EGF-stimulated ERK1/2 phosphorylation; assay: Modulation of EGF-stimulated ERK1/2 phosphorylation in COS-7 cells; type: cell-based; details: wortmannin 100 nM, 30 min pretreatment; 10 ng/ml EGF, 10 min
Method: COS-7 cells (from the American Type Culture Collection) were cultured at 37°C in a humidified atmosphere of 95% air, 5% CO2, in DMEM supplemented with 10% FBS, 100 μg/ml streptomycin, and 100 units/ml penicillin (COS-7 growth medium). Transient transfections were performed using LipofectAMINE (Life Technologies: Gaithersburg, MD) as described previously ([27]). Cells were seeded at 8 × 10^5 cells/10-cm dish in COS-7 medium and cultured for 3 days before transfection. COS-7 cells were transfected in 5 ml/dish OptiMEM containing 10 μg/ml LipofectAMINE with empty vector, pcDNA3 encoding the HA-CRF1R or the HA-CRF1R-Δ386 mutant. […] After replacing the transfection medium with fresh growth medium, transfected COS-7 cells were cultured for 1 day. […]
(§1) The protocols for measuring total and phosphorylated ERK1/2, c-Src, PYK2, Akt, and EGFR have been previously published ([28], [29]). […] The labeled bands were quantified using the Quantity One 4.6.3 software program (Bio-Rad).
Figure 3 Involvement of EGFR transactivation in CRF-stimulated ERK1/2 phosphorylation. […] Total cell lysates were separated by SDS-PAGE and analyzed by immunoblotting with anti-p-ERK1/2 Thr^202/Tyr^204 (A–D) or anti-p-EGFR Tyr^1068 (E), as described in Materials and Methods. ERK1/2 and EGFR phosphorylation were quantitated by densitometry, and mean values were plotted from three to five independent experiments. […]

EGFR Tyr845 = assay: CRF-induced EGFR phosphorylation at Tyr845 in COS-7 cells expressing HA-CRF1R; type: cell-based; details: 100 nM wortmannin, 30 min pretreatment; 100 nM CRF, 5 min
Method: COS-7 cells (from the American Type Culture Collection) were cultured at 37°C in a humidified atmosphere of 95% air, 5% CO2, in DMEM supplemented with 10% FBS, 100 μg/ml streptomycin, and 100 units/ml penicillin (COS-7 growth medium). Transient transfections were performed using LipofectAMINE (Life Technologies: Gaithersburg, MD) as described previously ([27]). Cells were seeded at 8 × 10^5 cells/10-cm dish in COS-7 medium and cultured for 3 days before transfection. COS-7 cells were transfected in 5 ml/dish OptiMEM containing 10 μg/ml LipofectAMINE with empty vector, pcDNA3 encoding the HA-CRF1R or the HA-CRF1R-Δ386 mutant. […]
as §1
Figure 6 CRF mediates EGFR phosphorylation at Tyr^845 and activation of PYK2. […] Total cell lysates were separated by SDS-PAGE and analyzed by immunoblotting with anti-p-EGFR Tyr^845 (A,B) or anti-p-PYK2 Tyr^402 (E), as described in Materials and Methods. EGFR and ERK1/2 phosphorylation were quantitated by densitometry, and mean values were plotted from three to five independent experiments. […] Src and EGFR were quantitated by densitometry, and mean values were plotted from three independent experiments. […]

`COC[C@H]1OC(=O)c2coc3c2[C@@]1(C)C1=C(C3=O)[C@@H]2CCC(=O)[C@@]2(C)C[C@H]1OC(C)=O` [wortmannin] was tested, and the “effect on EGF-stimulated ERK1/2 phosphorylation” value [1] was “unable to inhibit the effect of EGF” and the “effect on CRF-induced EGFR Tyr845 phosphorylation” value (EGFR Tyr845) was “had no effect on CRF-induced phosphorylation of EGFR at Tyr^845”.
